# From ChEMBL document CHEMBL3046924 (Biochemistry, 2004)
# The source made the active and inactive calls. The rule behind the calls is not given here.
# Legend:
# [1] = molecular target: T1, 4-hydroxyphenylpyruvate dioxygenase (Arabidopsis thaliana, UniProt P93836); assay: Inhibition of Arabidopsis thaliana 4-hydroxyphenylpyruvate dioxygenase assessed as formation of homogentisate by HGA dioxygenase coupling enzyme assay; details: read-out: I50
# T1 sequence (P93836 whole entry): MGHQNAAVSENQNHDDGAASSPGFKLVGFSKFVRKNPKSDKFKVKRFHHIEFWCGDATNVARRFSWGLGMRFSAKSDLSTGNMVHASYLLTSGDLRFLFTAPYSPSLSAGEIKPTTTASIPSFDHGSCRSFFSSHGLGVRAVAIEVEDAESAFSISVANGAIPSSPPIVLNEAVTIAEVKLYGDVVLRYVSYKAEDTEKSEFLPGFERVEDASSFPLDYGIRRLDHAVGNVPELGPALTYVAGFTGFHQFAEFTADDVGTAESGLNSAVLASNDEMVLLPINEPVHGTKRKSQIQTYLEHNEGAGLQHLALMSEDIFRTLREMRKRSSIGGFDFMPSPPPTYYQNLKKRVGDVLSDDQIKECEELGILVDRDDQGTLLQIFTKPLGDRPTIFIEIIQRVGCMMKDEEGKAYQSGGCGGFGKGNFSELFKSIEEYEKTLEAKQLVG
# [2] = molecular target: 4-hydroxyphenylpyruvate dioxygenase (Rattus norvegicus, UniProt P32755); assay: Inhibition of Rattus norvegicus (rat) 4-hydroxyphenylpyruvate dioxygenase assessed as formation of homogentisate by HGA dioxygenase coupling enzyme assay; details: read-out: I50
# Sequence of 4-hydroxyphenylpyruvate dioxygenase (Rattus norvegicus, UniProt P32755) (P32755 whole entry): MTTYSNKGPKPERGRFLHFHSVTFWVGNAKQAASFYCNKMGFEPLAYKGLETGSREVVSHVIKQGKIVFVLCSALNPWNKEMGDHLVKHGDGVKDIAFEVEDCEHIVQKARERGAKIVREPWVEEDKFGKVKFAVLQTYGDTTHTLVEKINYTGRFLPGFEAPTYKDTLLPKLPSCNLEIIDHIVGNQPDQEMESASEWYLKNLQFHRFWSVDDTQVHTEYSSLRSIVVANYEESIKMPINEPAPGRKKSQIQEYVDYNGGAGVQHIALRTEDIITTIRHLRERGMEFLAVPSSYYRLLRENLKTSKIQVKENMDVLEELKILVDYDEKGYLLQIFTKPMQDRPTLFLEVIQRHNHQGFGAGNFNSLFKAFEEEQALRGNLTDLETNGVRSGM
# [3] = molecular target: 4-hydroxyphenylpyruvate dioxygenase (Rattus norvegicus) (UniProt P32755); assay: Inhibition of Rattus norvegicus (rat) 4-hydroxyphenylpyruvate dioxygenase assessed as formation of homogentisate upto 20 uM by HGA dioxygenase coupling enzyme assay
# Sequence of 4-hydroxyphenylpyruvate dioxygenase (Rattus norvegicus) (P32755 whole entry): as above
smiles,measurement,setting,value
COc1ccc(-c2c(S(C)(=O)=O)ccc(C(=O)c3cnn(C(C)(C)C)c3O)c2C)cc1,IC50,[1],7 nM
same,IC50,[2],< 20 nM
CC(C)(C)n1nc(-c2ccc(Cl)cc2Cl)c(C(=O)c2ccc(S(C)(=O)=O)cc2Cl)c1O,inhibition,[3],inactive
